Measured values as given in ChEMBL document CHEMBL3994570, “Euphorbia dendroides Latex as a Source of Jatrophane Esters: Isolation, Structural Analysis, Conformational Study, and Anti-CHIKV Activity” (J Nat Prod, 2016).
Active and inactive are the calls of the source. No cut-off for these calls is given here.

What was measured:
[1] = (§1) Cytotoxicity against African green monkey Vero cells assessed as reduction in metabolic activity by MTS assay; type: ADME, cell-based; conditions: chlorocebus sabaeus, Vero cells
[2] = Selectivity index, ratio of CC50 for African green monkey Vero cells to EC50 for Chikungunya virus 899 infected in African green monkey Vero cells; type: toxicity; conditions: read-out: Ratio CC50/EC50
Chikungunya virus = assay: Antiviral activity against Chikungunya virus 899 infected in African green monkey Vero cells assessed as inhibition of virus-induced cytopathic effect after 6 to 7 days by MTS assay; type: functional; conditions: for EC50: Chikungunya virus, 899, Vero
Vero = assay: as §1; type: ADME, cell-based; conditions: chlorocebus sabaeus, vero

| Structure (SMILES) | inhibition (Chikungunya virus) | other results |
| --- | --- | --- |
| C=C1[C@H](OC(=O)C(C)C)[C@@H](OC(C)=O)[C@@H](OC(C)=O)C(C)(C)/C=C/[C@H](C)C(=O)[C@@]2(O)C[C@@](C)(OC(C)=O)[C@H](OC(=O)COC(=O)c3ccccc3)[C@@H]2[C@H]1OC(C)=O | – | CC50 [1]: 17.7 µM; selectivity ratio [2]: 3.2; EC50 (Chikungunya virus): 5.5 µM |
| C=C1[C@H](O)[C@H]2[C@@H](OC(=O)c3ccccc3)[C@](C)(O)C[C@]2(O)C(=O)[C@@H](C)/C=C/C(C)(C)[C@H](OC(C)=O)[C@H](OC(C)=O)[C@H]1OC(=O)c1ccccc1 | inactive | – |
| C=C1[C@H](OC(=O)c2ccccc2)[C@@H](OC(C)=O)[C@@H](OC(C)=O)C(C)(C)/C=C/[C@H](C)C(=O)[C@@]2(O)C[C@@](C)(OC(C)=O)[C@H](O)[C@@H]2[C@H]1OC(=O)C(C)CC (some centres not stated) | inactive | Activity (Vero): Non-Toxic |
| CC(=O)O[C@H]1[C@@H](OC(C)=O)C(C)(C)/C=C/[C@@](C)(O)C(=O)[C@@]2(O)C[C@@](C)(OC(C)=O)[C@H](OC(C)=O)[C@@H]2[C@H]2OC(=O)CC[C@@]2(OC(C)=O)[C@@H]1OC(=O)C(C)C | inactive | – |
| C=C1[C@H](OC(=O)c2ccccc2)[C@@H](O)[C@@H](OC(C)=O)C(C)(C)/C=C/[C@H](C)C(=O)[C@@]2(O)C[C@@](C)(OC(C)=O)[C@H](O)[C@@H]2[C@H]1OC(=O)c1ccccc1 | inactive | Activity (Vero): Non-Toxic |
| CC(=O)O[C@H]1[C@@H](OC(C)=O)C(C)(C)/C=C/[C@@](C)(O)C(=O)[C@@]2(OC(C)=O)C[C@@](C)(OC(C)=O)[C@H](OC(C)=O)[C@@H]2[C@H]2OC(=O)CC[C@@]2(OC(C)=O)[C@@H]1OC(=O)C(C)C | inactive | – |
| C=C1[C@H](C(=O)C(C)C)[C@H]2[C@@H](OC(C)=O)[C@@H](C)C[C@]2(O)C(=O)[C@@H](C)/C=C/C(C)(C)[C@H](OC(C)=O)[C@H](OC(C)=O)[C@H]1OC(=O)c1ccccc1 | inactive | – |
| CC(=O)O[C@H]1[C@@H](OC(C)=O)C(C)(C)/C=C/[C@H](C)C(=O)[C@@]2(O)C[C@@](C)(OC(C)=O)[C@H](OC(C)=O)[C@@H]2[C@H]2OC(=O)CC[C@@]2(OC(=O)C(C)C)[C@@H]1OC(=O)C(C)C | – | CC50 [1]: 36 µM; selectivity ratio [2]: 2.4; EC50 (Chikungunya virus): 15 µM |
| C=C1[C@H](OC(=O)c2ccccc2)[C@@H](OC(C)=O)[C@@H](OC(C)=O)C(C)(C)/C=C/[C@H](C)C(=O)[C@@]2(O)C[C@@](C)(OC(C)=O)[C@H](O)[C@@H]2[C@H]1OC(=O)c1ccccc1 | inactive | Activity (Vero): Non-Toxic |
| CC(=O)O[C@H]1[C@@H](OC(C)=O)C(C)(C)/C=C/[C@H](C)C(=O)[C@@]2(OC(C)=O)C[C@@](C)(OC(C)=O)[C@H](O)[C@@H]2[C@H]2OC(=O)CC[C@@]2(OC(C)=O)[C@@H]1OC(=O)C(C)C | inactive | – |
| C=C1[C@H](OC(=O)c2ccccc2)[C@@H](OC(C)=O)[C@@H](OC(C)=O)C(C)(C)/C=C/[C@H](C)C(=O)[C@@]2(O)C[C@@](C)(OC(C)=O)[C@H](O)[C@@H]2[C@H]1OC(=O)C(C)C | inactive | – |
| C=C1[C@H](OC(=O)C(C)C)[C@@H](OC(C)=O)[C@@H](OC(C)=O)C(C)(C)/C=C/[C@H](C)C(=O)[C@@]2(O)C[C@@](C)(OC(C)=O)[C@H](OC(=O)c3ccccc3)[C@@H]2[C@H]1OC(=O)C(C)C | inactive | – |
| C=C1[C@H](OC(=O)c2ccccc2)[C@@H](OC(C)=O)[C@@H](OC(C)=O)C(C)(C)/C=C/[C@H](C)C(=O)[C@@]2(O)C[C@@](C)(OC(C)=O)[C@H](OC(=O)C(C)C)[C@@H]2[C@H]1OC(=O)C(C)C | inactive | – |
| C=C1[C@H](OC(=O)c2ccccc2)[C@@H](OC(C)=O)[C@@H](OC(C)=O)C(C)(C)/C=C/[C@H](C)C(=O)[C@@]2(O)C[C@@](C)(OC(C)=O)[C@H](OC(C)=O)[C@@H]2[C@H]1OC(=O)C(C)C | inactive | – |
| C=C1[C@H](C(=O)C(C)C)[C@H]2[C@@H](OC(C)=O)[C@](C)(O)C[C@]2(O)C(=O)[C@@H](C)/C=C/C(C)(C)[C@H](OC(C)=O)[C@H](OC(C)=O)[C@H]1OC(=O)c1ccccc1 | inactive | – |
